From PMC9131871, “Impact of Micropolymorphism Outside the Peptide Binding Groove in the Clinically Relevant Allele HLA-C*14 on T Cell Responses in HIV-1 Infection” (Journal of Virology, 2022)

Biological target: HLA-C*14:03 (Homo sapiens, UniProt P10321, A176E/A330V/A35S/A97T/C350S/D114A/D33S/L171W/L180R/L218V/M285V/M309V/M331V/P208H/Q277E/Q291P/R121W/R243W/R45H/S123F/S297R/S48A/T329A/T363A/V319A)
Assay: LC-MS/MS identification of HLA-bound HIV-1 peptides from NL4-3-infected .221-C1403 cells
Assay type: binding
Set-up: key: ●: Closed circles indicate the peptide which was identified in HLA-C*1402 or/and -C*1403 expressing cells
Conditions: HIV-1 NL4-3-infected .221-C1403 cells, W6/32 immunoprecipitation, two independent replicate experiments
Experimental: 721.221 cells expressing CD4 and HLA-C*14:02 (.221-C1402) or HLA-C*14:03 (.221-C1403) were infected with the laboratory-adapted NL4-3 HIV-1 strain. HLA-peptide complexes were isolated from cell lysates by immunoprecipitation with the anti-HLA class I antibody W6/32; then, peptides were eluted, fractionated by high-performance liquid chromatography (HPLC), and finally analyzed by LC-MS/MS. Two independent replicate experiments were performed, in which a total of 7,970 and 8,447 unique 8- to 13-mer peptide sequences were identified from .221-C1402 and .221-C1403 cells, respectively (Fig. 1A). Of these peptides, 6,163 were identified in both the C*14:02- and C*14:03-bound peptide data sets, while other peptides were detected in the acid-eluted fraction from only a single allele. […] These motifs are consistent with the HLA-C*1402/03 peptide motifs previously estimated using reported epitopes ([29]).
.221-C1402 and .221-C1403 cells were infected with HIV-1 NL4-3 in a low volume of RPMI 1640 medium (Thermo Fisher) containing 10% fetal bovine serum (FBS), 2 mM L-glutamine, 100 U/mL penicillin, 100 μg/mL streptomycin, and 10 mM HEPES (R10). Fifty microliters of NL4-3 stock virus (Reverse transcriptase activity (RT) value = 4 × 10^2 ng/mL) was added to 8 × 10^6 .221-C1402 cells or .221-C1403, and the cells were then incubated for 1.5 h at 37°C, after which 20 mL of R10 was added and the cells were cultured overnight. At day 1 postinfection, a further 20 mL R10 was added, and cells were split (1:2) on day 2. On day 3 postinfection, the proportion of cells infected with HIV-1 was determined by intracellular p24 staining, as previously described ([46]). Infected flasks were then harvested for immunoprecipitation of HLA-peptide complexes.
.221-C1402 cells or .221-C1403 cells infected with NL4-3 (1.5 × 10^8 to 2 × 10^8 cells) were harvested, washed in phosphate-buffered saline (PBS), and lysed in 5 mL of lysis buffer (1% IGEPAL 630, 300 mM NaCl, 100 mM Tris [pH 8.0], plus protease inhibitors) at 4°C for 45 min. Two centrifugation steps (2,000 × g for 10 min followed by 20,000 × g for 30 min at 4°C) were next employed to clear the lysates of cell debris prior to overnight capture of HLA-peptide complexes on W6/32-coated protein A‐Sepharose beads. W6/32-bound HLA-peptide complexes were sequentially washed with 10 to 20 mL of wash buffer 1 (0.005% IGEPAL, 50 mM Tris [pH 8.0], 150 mM NaCl, 5 mM EDTA), wash buffer 2 (50 mM Tris [pH 8.0], 150 mM NaCl), wash buffer 3 (50 mM Tris [pH 8.0], 400 mM NaCl), and finally wash buffer 4 (50 mM Tris [pH 8.0]) under gravity flow in Econo-Column glass chromatography columns (Bio-Rad). Peptide-HLA complexes were eluted from the beads with 5 mL of 10% acetic acid and, after drying under vacuum, were loaded onto a 4.6- by 50-mm ProSwift RP-1S column (Thermo Fisher Scientific) and eluted from an Ultimate 3000 HPLC system (Thermo Scientific) using a 500-μL/min flow rate over 10 min from 2% to 34% buffer B (0.1% trifluoroacetic acid [TFA] in acetonitrile) in buffer A (0.1% TFA in water). Alternate fractions were pooled to give two final peptide fractions that were dried for LC-MS/MS analysis.
Each HPLC-eluted sample was resuspended in 20 μL loading buffer, and 9 μL of it was injected onto a 3-μm-particle-size 0.075-mm by 150-mm Acclaim PepMap RSLC C18 column and further loaded onto a 2-μm-particle-size, 75-μm by 50-cm Acclaim PepMap RSLC C18 column using an Ultimate 3000 nUPLC system (Thermo Scientific). A linear gradient of 3 to 25% buffer B (0.1% formic acid, 5% dimethyl sulfoxide [DMSO] in acetonitrile) in buffer A (0.1% formic acid, 5% DMSO in water) was applied over 1 h to elute peptides from the column (flow rate of […]). Peptides were introduced, using an Easy-Spray source at 2,000 V at 40°C, into a Fusion Lumos mass spectrometer (Thermo Scientific). The ion transfer tube temperature was set to 305°C. […]

| Sequence | C1403: peptide identified by LC-MS/MS in HLA-I eluate |
| --- | --- |
| AFHHVAREL [Nef AL9] | ● |
| FMTKALGI [Tat FI8, HIV-1 NL4-3 Tat 38–45 peptide FMTKALGI] | ● |
| YFPDWQNYT [Nef YT9] | ● |
| FLGAAGSTM [Env FM9, HIV-1 NL4-3 Env 522–530 peptide …] | ● |
| RFDSRLAF [Nef RF8, HIV-1 NL4-3 Nef 184–191 peptide RFDSRLAF] | ● |
| IYHTQGYF [Nef IF8] | ● |
| KYHSNWRAM [Pol KM9] | ● |
| LYNTIAVLY [Gag LY9] | ● |
| FFREDLAF [Pol FF8, HIV-1 NL4-3 Pol 1–8 peptide FFREDLAF] | ● |
| ASGYIEAEV [Pol AV9, HIV-1 NL4-3 Pol 795–803 peptide …] | ● |
| VYYDPSKDL [Pol VYL9, HIV-1 NL4-3 Pol 472–480 peptide …] | ● |
